Usually IC50 stands for the concentration that gives 50% inhibition. Read a high IC50 as a need for much substance.

Assay type in all cases: cell-based
What all share (details): 72 h; human CD4+ T cells under TH17-polarizing conditions, 3 days; supernatant ELISA
(In general: An ELISA detects its analyte on a solid surface through an enzyme-linked reagent.)

For test [1], the system named is IL-21. As to the kind of experiment: Human TH17 cytokine inhibition measured by ELISA: IL-21. The method, then:
(§1) Human TH17 Cytokine Inhibition as Measured by ELISA
(§2) Peripheral blood mononuclear cells (PBMCs) were sourced from freshly prepared leukocyte enriched plasma (buffy coat) from healthy donors (New York Blood Center). PBMCs were isolated by density gradient centrifugation using Ficoll-Paque™ PLUS (GE Healthcare). Human CD4+ T cells were seeded into 96-well plates (5×10^4 cells/well) and activated with plate-bound anti-human (h)-CD3 antibody and soluble h-aCD28 (both at 1 ug/ml; eBioscience) and differentiated into TH17 cells with 20 ng/mL h-IL-6, 5 ng/mL h-TGF-β1, 10 ng/mL h-IL-23 (eBioscience) and 10 ng/mL IL-1 β (Miltenyi Biotec) in serum-free TexMACS Medium (Miltenyi Biotec) supplemented with 1% Penicillin/Streptomycin (Lonza) for 3 days. CD4+ T cells propagated under TH17-polarizing conditions were cultured in the presence or absence of various concentrations of compounds with a final concentration of 0.1% DMSO. Supernatants were collected and stored at −20° C. until assayed for IL-17A, IL-17F and IL-21 levels by “Ready-Set-Go” ELISA kits (eBioscience) as per manufacturer's instructions. Endpoint absorbance was read at 450 nm using a microplate reader (Perkin Elmer).

For test [2], the system named is IL-17F. As to the kind of experiment: Human TH17 cytokine inhibition measured by ELISA: IL-17F. As for the experimental part: as §1, §2
Test [3] has as its system IL-17A. The test is described as follows: Human TH17 cytokine inhibition measured by ELISA: IL-17A. As for the experimental part: as §1, §2
The subject of test [4] is IL-22. The test is described as follows: Human TH17 cytokine inhibition measured by ELISA: IL-22.

The structures appear in SMILES notation.

On to `O=S(=O)(CCc1ccccc1)N1CCC(Cn2ccc3cc(-c4cn[nH]c4)ccc32)CC1` [Example 7, 1-((1-(phenethylsulfonyl)piperidin-4-yl)methyl)-5-(1H-pyrazol-4-yl)-1H-indole], for which the IC50 in test [1], in test [2] and in test [3] was < 10 µM throughout.
On to `C[C@H]1C[C@H](Cn2ccc3cc(-c4cn[nH]c4)ccc32)CN1S(=O)(=O)c1ccccc1` (racemic) [Example 48, rac.-trans-1-((-5-methyl-1-(phenylsulfonyl)pyrrolidin-3-yl)methyl)-5-(1H-pyrazol-4-yl)-1H-indole], for which the IC50 in test [1], in test [2] and in test [3] was < 10 µM in each case.
Consider `O=S(=O)(c1ccccc1F)N1CCC(Cn2ccc3cc(-c4cn[nH]c4)ccc32)CC1` [Example 40, 1-((1-(2-fluorophenylsulfonyl)piperidin-4-yl)methyl)-5-(1H-pyrazol-4-yl)-1H-indole], for which the IC50 in test [4], in test [1], in test [2] and in test [3] was < 10 µM each time.
Turning to `O=S(=O)(CC(F)(F)F)N1CCC(Cn2ccc3cc(-c4cn[nH]c4)ccc32)CC1` [Example 8, 5-(1H-pyrazol-4-yl)-1-((1-((2,2,2-trifluoroethyl)sulfonyl)piper-idin-4-yl)methyl)-1H-indole], the IC50 in test [1], in test [2] and in test [3] was > 10 µM in each case.
On to `C[C@@H]1C[C@H](Cn2ccc3cc(-c4cn[nH]c4)ccc32)CN1S(=O)(=O)c1ccccc1` (racemic) [Example 47, rac.-cis-1-((-5-methyl-1-(phenylsulfonyl)pyrrolidin-3-yl)methyl)-5-(1H-pyrazol-4-yl)-1H-indole], for which the IC50 in test [1], in test [2] and in test [3] was < 10 µM throughout.
With `CC1(C)CC(Cn2ccc3cc(-c4cn[nH]c4)ccc32)CN1S(=O)(=O)c1ccccc1` (stereo not shown) [Example 29, 1-((5,5-dimethyl-1-(phenylsulfonyl)pyrrolidin-3-yl)methyl)-5-(1H-pyrazol-4-yl)-1H-indole], the IC50 in test [1], in test [2] and in test [3] was < 10 µM each time.
Turning to `O=S(=O)(Cc1ccccc1)N1CCC(Cn2ccc3cc(-c4cn[nH]c4)ccc32)CC1` [Example 6, 1-((1-(benzylsulfonyl)piperidin-4-yl)methyl)-5-(1H-pyrazol-4-yl)-1H-indole], the values for the IC50 in test [1], in test [2] and in test [3] were > 10 µM, < 10 µM and < 10 µM, respectively.
Regarding `CS(=O)(=O)N1CCC(Cn2ccc3cc(-c4cn[nH]c4)ccc32)CC1` [Example 50, 1-((1-(methylsulfonyl)piperidin-4-yl)methyl)-5-(1H-pyrazol-4-yl)-1H-indole], the IC50 in test [4], in test [1], in test [2] and in test [3] was > 10 µM throughout.
Consider `O=S(=O)(c1cccnc1)N1CCC(Cn2ccc3cc(-c4cn[nH]c4)ccc32)CC1` [Example 38, 5-(1H-pyrazol-4-yl)-1-((1-(pyridin-3-ylsulfonyl)piperidin-4-yl)methyl)-1H-indole], for which the 50% inhibitory concentration (IC50) in test [4], in test [1], in test [2] and in test [3] was < 10 µM each time.
`O=S(=O)(c1ccccc1)N1CCC(Cn2ccc3cc(-c4cn[nH]c4)ccc32)CC1` [Example 5, 1-((1-(phenylsulfonyl)piperidin-4-yl)methyl)-5-(1H-pyrazol-4-yl)-1H-indole]: the IC50 in test [1], in test [2] and in test [3] was < 10 µM each time.
As to `O=S(=O)(c1ccc(Cl)cc1)N1CCC(Cn2ccc3cc(-c4cn[nH]c4)ccc32)CC1` [Example 36, 1-((1-(4-chlorophenylsulfonyl)piperidin-4-yl)methyl)-5-(1H-pyrazol-4-yl)-1H-indole], the IC50 in test [4], in test [1], in test [2] and in test [3] was < 10 µM each time.
